For eleven compounds, GI50 and TGI results are on record in PubChem BioAssay (NCI).

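Cells were grown in 96-well plates and exposed to each compound for 48 hours at five concentrations; endpoints were interpolated linearly between bracketing concentrations, or set to the highest concentration if not reached. GI50: concentration for 50% inhibition of growth. At the TGI there is no net growth.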 Bounds are passed on as bounds.

Test systems include 786-0 renal; CAKI-1 renal; EKVX NSCLC; MDA-MB-231 breast; MOLT-4 leukemia; RXF 393 renal; UACC-257 melanoma; UO-31 renal.
Common to all, as to experiment: NCI anticancer screen, dose series, 48 h

Consider `O=c1oc2ccc(I)cc2c(=O)n1-c1ccc(Br)cc1F`, for which the GI50 in the assay with 786-0 renal was 2.42 µM; with CAKI-1 renal it was 0.375 µM; with EKVX NSCLC it was 1.34 µM; in the assay on MDA-MB-231 breast, 0.457 µM; with MOLT-4 leukemia, 1.59 µM; with RXF 393 renal, 1.02 µM. Further, the GI50 in the assay on UACC-257 melanoma was 0.735 µM; with UO-31 renal, 0.33 µM. Also, the TGI in the assay on 786-0 renal worked out at 7.12 µM; in the assay with CAKI-1 renal, 3.23 µM; in the assay on EKVX NSCLC, 7.11 µM; in the assay with MDA-MB-231 breast, 3.79 µM; in the assay on MOLT-4 leukemia it was 5.18 µM; in the assay on RXF 393 renal, 4.39 µM. In addition, the TGI in the assay with UACC-257 melanoma came out at 5.02 µM; in the assay with UO-31 renal, 2.72 µM.

Turning to `CCCCCCCCCCCCCCCC1=NCC[N+]1(CCO)CCO`, the GI50 is 1.64 µM in the assay on 786-0 renal; 3.58 µM in the assay on CAKI-1 renal; 10.2 µM with EKVX NSCLC; 1.81 µM in the assay on MDA-MB-231 breast; 1.8 µM in the assay on MOLT-4 leukemia; 2.47 µM in the assay on RXF 393 renal. Further, the GI50 in the assay with UACC-257 melanoma is 6.48 µM; with UO-31 renal, 1.4 µM. Besides, the TGI in the assay with 786-0 renal amounted to 3 µM; in the assay on CAKI-1 renal, 14.6 µM; with EKVX NSCLC it was 32.4 µM; with MDA-MB-231 breast it was 3.51 µM; with MOLT-4 leukemia it was 4.15 µM; with RXF 393 renal, 6.28 µM. For the same compound, the TGI with UACC-257 melanoma turned out to be 20.7 µM; with UO-31 renal, 3.33 µM.

`CCc1cccc(C(C)C)c1NC(=O)C(=O)C1C(=O)Nc2ccccc2S1=O` (centres undefined): the TGI in the assay with 786-0 renal, in the assay on CAKI-1 renal, in the assay on EKVX NSCLC, with MDA-MB-231 breast, with MOLT-4 leukemia and with RXF 393 renal was over 100 µM each time. Also, the TGI in the assay on UACC-257 melanoma and in the assay on UO-31 renal was over 100 µM throughout.

As to `C/C=C(\C)c1cc(=O)c2c(C)cc3c(c2o1)C(=O)c1c(O)c(C2CC(C)(N(C)C)C(OC(C)=O)C(C)O2)cc(C2CC(N(C)C)C(O)C(C)O2)c1C3=O` (centres undefined), the TGI in the assay on 786-0 renal is 5.68 µM; in the assay with CAKI-1 renal, 5.1 µM; in the assay on EKVX NSCLC it was 5.38 µM; in the assay on MDA-MB-231 breast, 5.96 µM; with MOLT-4 leukemia, over 15.2 µM; with RXF 393 renal, 1.27 µM. The figures for the TGI with UACC-257 melanoma and with UO-31 renal were 6.47 µM and 7.87 µM, respectively.

Turning to `COc1ccc(C2(Cl)c3ccccc3N(c3ccccc3)c3ccccc32)cc1`, the GI50 in the assay on 786-0 renal is 0.618 µM; in the assay with CAKI-1 renal, 1.68 µM; with EKVX NSCLC it was 0.25 µM; with MDA-MB-231 breast it was 0.759 µM; in the assay with MOLT-4 leukemia, 1.83 µM; in the assay on RXF 393 renal, 0.718 µM. The GI50 is 0.797 µM in the assay on UACC-257 melanoma and 0.846 µM in the assay with UO-31 renal. Moreover, the TGI with 786-0 renal is 2.06 µM; in the assay with CAKI-1 renal, 12.5 µM; with EKVX NSCLC it was 2.9 µM; in the assay with MDA-MB-231 breast it was 2.54 µM; in the assay on MOLT-4 leukemia, 11 µM; in the assay on RXF 393 renal, 2.56 µM. The TGI in the assay on UACC-257 melanoma is 3.67 µM; in the assay with UO-31 renal, 10.8 µM.

`NS(=O)(=O)OC[C@H]1C[C@@H](Nc2ccnc3cc(-c4cccc(SC(F)(F)F)c4)nn23)[C@H](O)[C@@H]1O`: the GI50 in the assay with 786-0 renal was 0.0472 µM; in the assay on CAKI-1 renal, 0.181 µM; in the assay on EKVX NSCLC, 0.028 µM; in the assay on MDA-MB-231 breast, 0.0195 µM; with MOLT-4 leukemia, 0.166 µM; in the assay on RXF 393 renal it was 0.0199 µM. For the same compound, the figures for the GI50 with UACC-257 melanoma and with UO-31 renal were 0.0278 µM and 0.208 µM, respectively. Moreover, the TGI in the assay on 786-0 renal is 0.19 µM; with CAKI-1 renal, 0.477 µM; in the assay with EKVX NSCLC it was 0.104 µM; with MDA-MB-231 breast, 0.0867 µM; in the assay on MOLT-4 leukemia, 0.588 µM; with RXF 393 renal, 0.0436 µM. Further, the TGI with UACC-257 melanoma came out at 0.108 µM; in the assay with UO-31 renal it was 0.369 µM.

For the compound `CCc1ccc(Oc2c(-c3ccc(OCc4ccc(Cl)cc4)cc3O)n[nH]c2C(F)(F)F)cc1`, the GI50 with 786-0 renal was 1.72 µM; in the assay with CAKI-1 renal it was 2.29 µM; in the assay with EKVX NSCLC, 1.89 µM; with MDA-MB-231 breast it was 1.91 µM; in the assay with MOLT-4 leukemia, 2.46 µM; in the assay on RXF 393 renal, 1.65 µM. Moreover, the GI50 is 1.84 µM with UACC-257 melanoma and 1.68 µM in the assay with UO-31 renal. Further, the TGI in the assay on 786-0 renal was 3.27 µM; with CAKI-1 renal, 5.95 µM; with EKVX NSCLC, 4.34 µM; in the assay on MDA-MB-231 breast, 3.96 µM; in the assay with MOLT-4 leukemia, 5.64 µM; with RXF 393 renal, 3.16 µM. Further, the TGI is 3.8 µM in the assay on UACC-257 melanoma and 3.89 µM in the assay on UO-31 renal.

In the case of `CCOC(=O)C1=CCCC[C@H]1S(=O)(=O)Nc1ccc(F)cc1Cl`, the GI50 with 786-0 renal was 32.9 µM; in the assay on CAKI-1 renal it was 31.5 µM; in the assay with EKVX NSCLC, 26.8 µM; with MDA-MB-231 breast it was 28.4 µM; with MOLT-4 leukemia, 27.3 µM; with RXF 393 renal, 13.2 µM. Besides, the GI50 is 35.8 µM with UACC-257 melanoma and 20.8 µM with UO-31 renal. The TGI in the assay on 786-0 renal was over 100 µM; with CAKI-1 renal, over 100 µM; with EKVX NSCLC it was over 100 µM; in the assay on MDA-MB-231 breast, 98.6 µM; in the assay with MOLT-4 leukemia, 92.2 µM; with RXF 393 renal, 61.9 µM. For the same compound, the TGI in the assay with UACC-257 melanoma and in the assay with UO-31 renal was over 100 µM in each case.

`CCc1nc(N)nc(N)c1-c1ccc(Cl)c([N+](=O)[O-])c1`: the TGI with 786-0 renal is over 100 µM; in the assay with CAKI-1 renal, over 100 µM; with EKVX NSCLC, over 100 µM; in the assay on MDA-MB-231 breast, over 100 µM; with MOLT-4 leukemia, over 65.2 µM; in the assay with RXF 393 renal, over 100 µM. Also, the TGI in the assay on UACC-257 melanoma and with UO-31 renal was over 100 µM each time.

Turning to `O=C(CN(/C=C/C(=O)C(F)(F)F)c1ccc(Cl)cc1)c1ccc(Cl)cc1`, the GI50 was 18.6 µM in the assay with 786-0 renal; 1.98 µM in the assay on CAKI-1 renal; 14.3 µM in the assay with EKVX NSCLC; 11.5 µM with MDA-MB-231 breast; 8.82 µM in the assay on MOLT-4 leukemia; 10.2 µM in the assay on RXF 393 renal. In addition, the figures for the GI50 with UACC-257 melanoma and in the assay with UO-31 renal were 7.45 µM and 12 µM, respectively. The TGI in the assay on 786-0 renal was found to be 65.1 µM; with CAKI-1 renal, 9.5 µM; with EKVX NSCLC, 28.7 µM; with MDA-MB-231 breast, 23.7 µM; in the assay with MOLT-4 leukemia, 37.4 µM; in the assay on RXF 393 renal, 35.9 µM. Moreover, the TGI in the assay with UACC-257 melanoma was 20.8 µM; in the assay on UO-31 renal, 24.8 µM.

Consider `Cc1c(-c2cnccn2)ssc1=S`, for which the TGI is over 77.4 µM in the assay with 786-0 renal; over 100 µM with CAKI-1 renal; 90.9 µM in the assay on EKVX NSCLC; over 100 µM with MDA-MB-231 breast; over 100 µM with MOLT-4 leukemia; 80.9 µM with RXF 393 renal. The TGI was 38.1 µM with UACC-257 melanoma and over 89.7 µM with UO-31 renal.
